Experimental data published in patent US4007184A, “Substituted alkyl esters of quinoxaline-di-N-oxide-2-carboxylic acid” (Pfizer Inc., priority 1975, dated 1977).
Converted amounts (≈) assume the structure as drawn. Structures can show the parent of a compound that is named as a salt.

Key:
Escherechia coli [1] = experiment: in vivo antibacterial activity against acute infections in mice, oral; conditions: for responders at 200 mg/kg / responders at 50 mg/kg: Escherichia coli, in Mus musculus, po, 96 h; for responders at 200 mg/kg: read-out: percent animals which survived, E. coli, *200 mg./kg., mice, oral, 200 mg./kg. (footnote *); for responders at 50 mg/kg: read-out: percent animals which survived, E. coli, **50 mg./kg., mice, oral, 50 mg./kg.; for percent animals which survived, E. coli 100 / percent animals which survived, E. coli 25: mice, oral; for percent animals which survived, E. coli 100: 100 mg./kg.; for percent animals which survived, E. coli 25: 25 mg./kg.
Experimental: (§1) The in vivo efficacy of the compounds of the instant invention is determined by the antibacterial activity against acute infections in mice. The acute experimental infections are produced by the intraperitoneal inoculation of standardized culture suspended in either 5% hog gastric mucin or broth.
(§2) Stock cultures of test organisms are normally maintained on slants or in liquid medium. When not routinely used they are maintained at refrigerator temperature or in a lyophilized state. When it becomes to use a culture in animal protection tests the culture is suspended in a volume of saline or broth, and the density of the suspension is measured by a photo-electric colorimeter. From this stock, ten-fold dilutions are prepared. Each dilution is inoculated into a series of mice in order to determine the LD100, the LD100 being the lowest concentration of organisms required to produce 100 percent deaths. […] This means that we are using about 10 LD100 or 10 times the minimum dose required to kill mice. Such a test would also include the use of control animals which receive an inoculum of 10^^-4, 10^^-5 and possibly 10^^-6. These dilutions are included as a check on possible variation in virulence which can occur. Having previously determined, through the virulence titration, that 10^^-4 was the maximum dilution that will kill we naturally expect these animals to die, usually within 24 hours.
(§3) Each organism has its own standardized inoculum level. Some, such as Staphylococcus, may be used at 10^^-1, while others like Streptococcus require weekly animal passage in order to maintain virulence.
(§4) When evaluating an antibiotic for its effectiveness after a single dose, the dose is usually administered 0.5 hour after inoculating the mice with the lethal concentration of organisms. In this type of treatment schedule surviving mice are usually held for 4 days after the treatment and the percent alive is calculated.

[2] = system: Salmonella cholerasuis var. kunzendorf; experiment: protection against systemic challenge infection in swine; assay type: in vivo; conditions: intramuscular, day 10, placebo 83
Experimental: Young, 6-8 week old pigs are conditioned for 14 days in isolation rooms and maintained during the entire study on a basal ration consisting of ground yellow corn (78.4%), soybean meal (15%), alfalfa meal (2%), meat bone scraps (2.5%), limestone (0.4%), dicalcium phosphate (0.65%), iodized salt (0.5%), Vitamin pre-mix PPM-5 (0.5%), quadruple delamix (0.05%) and zinc carbonate (7.8 g./100 lbs. mix). All the pigs, which are divided into groups of six, are inoculated on day 0 with 4 ml. (approximately 2.0 × 10^8 organisms) of the stock inoculating suspension. Treatment with the quinoxaline-di-N-oxides of the present invention is carried out on day 0 and day 1 by intramuscular injection at 12 hour intervals at doses of 2.5 and 5 mg./kg. On day 10 the percent mortality in each group is calculated.

Staphylococcus aureus = experiment: in vitro activity (MIC), two-fold serial dilution technique; assay type: cell-based; conditions: 37° C., approximately 24 hours, method gives concentrations as mcg. of compound per ml., read-out: MIC (Minimal Inhibitory Concentration) S. aureus
Escherechia coli [3] = experiment: as above; assay type: cell-based; conditions: Escherichia coli, 37° C., approximately 24 hours, method gives concentrations as mcg. of compound per ml., read-out: MIC (Minimal Inhibitory Concentration) E. coli
Streptococcus pyogenes = experiment: in vivo antibacterial activity against acute infections in mice, oral; conditions: for percent animals which survived, S. pyogenes 50: 50 mg./kg.; for percent animals which survived, S. pyogenes 200: 200 mg./kg.
Experimental: as §1, §2, §3, §4

[4] = growth promotion in swine; assay type: in vivo; conditions: 50 g./ton of feed, 28 days; for Weight Gain Index: control = 100
Experimental: In practice, growth promotion is determined in swine, for instance, by the method wherein young pigs from 5-6 weeks of age and averaging 21.5 lbs. initial body weight are maintained on an ad libitum consumption of water and feed formulation consisting of ground yellow corn (58.1%), soybean meal (19.6%), alfalfa meal (2.0%), dried skim milk (5.0%), dried whey (10.0%), stabilized animal fat (2.5%), limestone (0.6%), dicalcium phosphate (1.1%), iodized salt (0.5%), vitamin premix PPM-5 (0.5%), quadruple delamix (0.05%), and zinc carbonate (156 g./2000 lbs. mix). The pigs are divided into groups of 32 pigs each and are held for a pre-experimental period of 3 days prior to starting the experiment. The quinoxaline-di-N-oxides of the present invention are added to the feed at a ratio of 50 g. of compound per ton of feed. After 28 days the efficacy of said added compounds on growth promotion is measured by a comparison of the growth in terms of weight gain of the treated animals with the untreated control group, which is arbitrarily assigned a weight gain Index of 100. For example, if a compound effects a growth 23% greater than the control group (with an Index of 100) it would be assigned a value of 123, etc.
Employing the previously described procedure for determining growth promotion in animals, the following quinoxaline-di-N-oxides were tested at 50 g./ton of feed in swine for a period of 28 days and provided the following results: […]

| SMILES | responders at 200 mg/kg (Escherechia coli [1]) [%] | responders at 50 mg/kg (Escherechia coli [1]) [%] | MIC (Staphylococcus aureus) [µg/mL] | MIC (Escherechia coli [3]) [µg/mL] | also measured |
| --- | --- | --- | --- | --- | --- |
| Cc1c(C(=O)OCCOC(=O)CCl)[n+]([O-])c2ccccc2[n+]1[O-] | 100 | 100 | – | – | – |
| Cc1c(C(=O)OCCOC(=O)C[N+](C)(C)C)[n+]([O-])c2ccccc2[n+]1[O-] | 90 | 40 | – | – | – |
| CCCCCCCCCC(=O)OCCOC(=O)c1c(C)[n+]([O-])c2ccccc2[n+]1[O-] | 100 | 70 | – | – | – |
| CCOC(=O)OCCOC(=O)c1c(C)[n+]([O-])c2ccccc2[n+]1[O-] | – | – | – | – | percent animals which survived, E. coli 100 (Escherechia coli [1]): 30% |
| Cc1c(C(=O)OCCOC(=O)OCC(C)C)[n+]([O-])c2ccccc2[n+]1[O-] | 90 | – | – | – | – |
| CCC(=O)OCCOC(=O)c1c(C)[n+]([O-])c2ccccc2[n+]1[O-] | 90 | 80 | – | – | – |
| CCCC(=O)OCCOC(=O)c1c(C)[n+]([O-])c2ccccc2[n+]1[O-] | 90 | 80 | – | – | – |
| CCCCC(=O)OCCOC(=O)c1c(C)[n+]([O-])c2ccccc2[n+]1[O-] | 100 | 60 | – | – | – |
| CCCCCC(=O)OCCOC(=O)c1c(C)[n+]([O-])c2ccccc2[n+]1[O-] | 90 | 0 | – | – | – |
| CCCCCCC(=O)OCCOC(=O)c1c(C)[n+]([O-])c2ccccc2[n+]1[O-] | 100 | 10 | – | – | – |
| CCCCCCCC(=O)OCCOC(=O)c1c(C)[n+]([O-])c2ccccc2[n+]1[O-] | 100 | 50 | – | – | – |
| Cc1c(C(=O)OCCOC(=O)CCCC(=O)O)[n+]([O-])c2ccccc2[n+]1[O-] | 90 | 50 | – | – | – |
| CC(=O)OCCOC(=O)c1c(C)[n+]([O-])c2ccccc2[n+]1[O-] [3-Methyl-2-quinoxalinecarboxylic acid, 2-(acetyloxy)ethyl ester, 1,4-dioxide] | – | – | – | – | % Mortality ([2]; 2.5 mg./kg. × 4 at 12 hour intervals): 67%; % Mortality ([2]; 5.0 mg./kg. × 4 at 12 hour intervals): 17% |
| CC1(C)S[C@@H]2[C@H](NC(=O)Cc3ccccc3)C(=O)N2[C@H]1C(=O)O [Benzylpenicillin (K Salt), Benzylpenicillin, reference compound] | – | – | 0.156 | > 100 | – |
| CCN(CC)CCOC(=O)c1c(C)[n+]([O-])c2ccccc2[n+]1[O-].Cl [H (CH2)2 N(C2 H5)2.HCl, 3-Methyl-2-quinoxalinecarboxylic acid, 2-(diethylamino)ethyl ester, 1,4-dioxide hydrochloride] | – | – | 100 | 12.5 | – |
| Cc1c(C(=O)OCCN(C)C)[n+]([O-])c2ccccc2[n+]1[O-].Cl [H (CH2)2 N(CH3)2.HCl, 3-Methyl-2-quinoxalinecarboxylic acid, 2-(dimethylamino)ethyl ester, 1,4-dioxide hydrochloride] | – | – | 100 | 6.25 | percent animals which survived, S. pyogenes 50 (Streptococcus pyogenes): 20%; percent animals which survived, S. pyogenes 200 (Streptococcus pyogenes): 70%; percent animals which survived, E. coli 25 (Escherechia coli [1]): 40%; percent animals which survived, E. coli 100 (Escherechia coli [1]): 100% |
| CCN(C)CCOC(=O)c1c(C)[n+]([O-])c2ccccc2[n+]1[O-].Cl [H (CH2)2 N(CH3)C2 H5.HCl, 3-Methyl-2-quinoxalinecarboxylic acid, 2-(methylethylamino)-ethyl ester, 1,4-dioxide hydrochloride] | – | – | 100 | 12.5 | percent animals which survived, S. pyogenes 50 (Streptococcus pyogenes): 60%; percent animals which survived, S. pyogenes 200 (Streptococcus pyogenes): 100%; percent animals which survived, E. coli 25 (Escherechia coli [1]): 0%; percent animals which survived, E. coli 100 (Escherechia coli [1]): 80% |
| Cc1c(C(=O)OCCN)[n+]([O-])c2ccccc2[n+]1[O-] [H (CH2)2 NH2.HCl, 3-Methyl-2-quinoxalinacarboxylic acid, 2-aminoethyl ester, 1,4-dioxide hydrochloride] | – | – | – | – | % Growth Over Control [4]: 39%; Weight Gain Index [4]: 139; percent animals which survived, S. pyogenes 50 (Streptococcus pyogenes): 30%; percent animals which survived, S. pyogenes 200 (Streptococcus pyogenes): 90%; percent animals which survived, E. coli 25 (Escherechia coli [1]): 100% |
| Cc1c(C(=O)OCCO)[n+]([O-])c2ccccc2[n+]1[O-] [H (CH2)2 OH, 3-Methyl-2-quinoxalinecarboxylic acid, 2-hydroxyethyl ester, 1,4-dioxide] | – | – | – | – | percent animals which survived, S. pyogenes 50 (Streptococcus pyogenes): 60%; percent animals which survived, S. pyogenes 200 (Streptococcus pyogenes): 100%; percent animals which survived, E. coli 25 (Escherechia coli [1]): 80%; percent animals which survived, E. coli 100 (Escherechia coli [1]): 100% |
| CCN(CC)CCCOC(=O)c1c(C)[n+]([O-])c2ccccc2[n+]1[O-].Cl [H (CH2)3 N(C2 H5)2.HCl, 3-Methyl-2-quinoxalinecarboxylic acid, 3-(diethylamino)propyl ester, 1,4-dioxide hydrochloride] | – | – | 200 | 12.5 | – |
| Cc1c(C(=O)OCCCN(C)C)[n+]([O-])c2ccccc2[n+]1[O-].Cl [H (CH2)3 N(CH3)2.HCl, 3-Methyl-2-quinoxalinecarboxylic acid, 3-(dimethylamino)propyl ester, 1,4-dioxide hydrochloride] | – | – | – | – | percent animals which survived, S. pyogenes 50 (Streptococcus pyogenes): 20%; percent animals which survived, S. pyogenes 200 (Streptococcus pyogenes): 100%; percent animals which survived, E. coli 25 (Escherechia coli [1]): 40%; percent animals which survived, E. coli 100 (Escherechia coli [1]): 80% |
| CCN(CC)CC(C)OC(=O)c1c(C)[n+]([O-])c2ccccc2[n+]1[O-] (centres unmarked) [H CH(CH3)CH2 N(C2 H5)2.HCl] | – | – | – | – | percent animals which survived, S. pyogenes 50 (Streptococcus pyogenes): 20%; percent animals which survived, S. pyogenes 200 (Streptococcus pyogenes): 80%; percent animals which survived, E. coli 25 (Escherechia coli [1]): 0%; percent animals which survived, E. coli 100 (Escherechia coli [1]): 60% |
| Cc1c(C(=O)OC(C)CN(C)C)[n+]([O-])c2ccccc2[n+]1[O-].Cl (centres unmarked) [H CH(CH3)CH2 N(CH3)2.HCl, 3-Methyl-2-quinoxalinecarboxylic acid, 1-methyl-2-(dimethyl-amino)ethyl ester, 1,4-dioxide hydrochloride] | – | – | 200 | 100 | – |
| CC(=O)OCCOC(=O)c1c(C)[n+]([O-])c2ccccc2[n+]1[O-] [drawing 80] | – | – | 12.5 (≈ 40.8 µM) | 50 (≈ 163 µM) | – |
| CCNC(=O)OCCOC(=O)c1c(C)[n+]([O-])c2ccccc2[n+]1[O-] [drawing 82] | – | – | 25 (≈ 74.6 µM) | > 200 | – |
| Cc1c(C(=O)OCCOC(=O)CCC(=O)O)[n+]([O-])c2ccccc2[n+]1[O-] [drawing 83] | – | – | 200 (≈ 549 µM) | > 200 | – |
| CC(=O)OCCOC(=O)c1c(C)[n+]([O-])c2ccccc2[n+]1[O-] [drawing 85] | – | – | – | – | percent animals which survived, S. pyogenes 50 (Streptococcus pyogenes): 80%; percent animals which survived, S. pyogenes 200 (Streptococcus pyogenes): 80%; percent animals which survived, E. coli 25 (Escherechia coli [1]): 80%; percent animals which survived, E. coli 100 (Escherechia coli [1]): 100% |
| CCNC(=O)OCCOC(=O)c1c(C)[n+]([O-])c2ccccc2[n+]1[O-] [drawing 89] | 30 | 40 | – | – | – |
| Cc1c(C(=O)OCCOC(=O)CCC(=O)O)[n+]([O-])c2ccccc2[n+]1[O-] [drawing 100] | 100 | 80 | – | – | – |
| CC(=O)OCCOC(=O)c1c(C)[n+]([O-])c2ccccc2[n+]1[O-] [drawing 103] | – | – | – | – | % Growth Over Control [4]: 53%; Weight Gain Index [4]: 153 |
